What was measured:
[1] = Dissolving clathrate in deionized water (appearance of mixture); format: physicochemical; conditions: 6.4 gms clathrate in 800 ml deionized water (pH=3), shaken; 0.2% quat, 0.6% urea
[2] = Solubility / stability against decomposition in chloroform; format: physicochemical
Experimental: The following experiments were conducted to determine if the clathrate compositions of this invention would be decomposed by chloroform (a strong solvent).
7.51 grams of urea were slurried in a beaker with 75.4 grams of chloroform by magnetic stirring for 10 minutes. The slurry was then filtered by gravity through filter paper. The filtrate was employed to rinse the beaker to remove all solids and the rinse added to the filter cake. The filtrate was then evaporated in a tared beaker and a residue of 0.01 grams obtained (which was within experimental error). From this experiment, it can be concluded that urea was insoluble in chloroform.
10.21 grams of Example 7, Table 1 organosilane quaternary clathrate was slurried as above in 75 grams of chloroform for 10 minutes and the slurry filtered as above and the filtrate evaporated to dryness. A waxy residue of 0.07 grams remained in the beaker.
It can be concluded that this residue was not the organosilane quaternary. The solids that were filtered were dried to constant weight. 10.24 grams were recovered. 10.21 grams of the clathrate had been added. The difference of +0.03 grams was within experimental error. It can be concluded that the clathrate was not soluble in chloroform and that the organosilane quaternary was not extracted from the clathrate by the chloroform.

In the case of CCCCCCCCCCCCCCCCCC[N+](C)(C)CCC[Si](OC)(OC)OC.[Cl-] [Example 7, 3-(trimethoxysilyl)propyldimethyloctadecyl ammonium chloride], the appearance of solution [1] is reported as “clear”.

With NC(N)=O [urea] the “residue of evaporated chloroform filtrate” value [2] was 0.01 grams and the solubility in chloroform [2] was “insoluble”.

Reference: US20080161219A1, “CLATHRATES OF AN ORGANOSILANE QUATERNARY AMMONIUM COMPOUND AND UREA AND METHODS OF USE” (priority 2007, published 2008)
